ChEMBL document CHEMBL4673219, “Novel 5,6-disubstituted pyrrolo[2,3-d]pyrimidine derivatives as broad spectrum antiproliferative agents: Synthesis, cell based assays, kinase profile and molecular docking study” (Bioorg Med Chem, 2018)

How the values were obtained:
[1] = target: Insulin-like growth factor 1 receptor (Homo sapiens) (UniProt P08069); experiment: Inhibition of human IGF1R at 10 uM using myelin basic protein as substrate incubated for 40 mins in presence of [gamma33P]ATP by scintillation counting method relative to control
[2] = test system: U-251; experiment: Growth inhibition of human U-251 cells assessed as growth percentage at 0.01 uM incubated for 48 hrs by sulforhodamine B assay relative to control; assay type: functional; details: read-out: Activity
[3] = test system: BT-549; experiment: Growth inhibition of human BT-549 cells assessed as growth percentage at 0.1 uM incubated for 48 hrs by sulforhodamine B assay relative to control; assay type: functional; details: read-out: Activity
[4] = test system: A549; experiment: Growth inhibition of human A549/ATCC cells assessed as growth percentage at 100 uM incubated for 48 hrs by sulforhodamine B assay relative to control; assay type: functional; details: read-out: Activity
[5] = test system: MOLT-4; experiment: Growth inhibition of human MOLT-4 cells assessed as growth percentage at 1 uM incubated for 48 hrs by sulforhodamine B assay relative to control; assay type: functional; details: read-out: Activity
[6] = test system: UACC-62; experiment: Growth inhibition of human UACC-62 cells assessed as growth percentage at 100 uM incubated for 48 hrs by sulforhodamine B assay relative to control; assay type: functional; details: read-out: Activity
[7] = test system: HL-60(TB); experiment: Growth inhibition of human HL-60(TB) cells assessed as growth percentage at 100 uM incubated for 48 hrs by sulforhodamine B assay relative to control; assay type: functional; details: read-out: Activity
[8] = test system: OVCAR-8; experiment: Growth inhibition of human OVCAR-8 cells assessed as growth percentage at 100 uM incubated for 48 hrs by sulforhodamine B assay relative to control; assay type: functional; details: read-out: Activity
[9] = test system: NCI-H226; experiment: Growth inhibition of human NCI-H226 cells assessed as growth percentage at 0.1 uM incubated for 48 hrs by sulforhodamine B assay relative to control; assay type: functional; details: read-out: Activity
[10] = test system: HCT-116; experiment: Growth inhibition of human HCT-116 cells assessed as growth percentage at 0.01 uM incubated for 48 hrs by sulforhodamine B assay relative to control; assay type: functional; details: read-out: Activity
[11] = test system: MDA-MB-468; experiment: Growth inhibition of human MDA-MB-468 cells assessed as growth percentage at 1 uM incubated for 48 hrs by sulforhodamine B assay relative to control; assay type: functional; details: read-out: Activity
[12] = target: Tyrosine-protein kinase Yes (Homo sapiens) (UniProt P07947); experiment: Inhibition of human YES1 at 10 uM using myelin basic protein as substrate incubated for 40 mins in presence of [gamma33P]ATP by scintillation counting method relative to control
[13] = test system: SN12C; experiment: Growth inhibition of human SN12C cells assessed as growth percentage at 0.01 uM incubated for 48 hrs by sulforhodamine B assay relative to control; assay type: functional; details: read-out: Activity
[14] = test system: SN12C; experiment: Growth inhibition of human SN12C cells assessed as growth percentage at 1 uM incubated for 48 hrs by sulforhodamine B assay relative to control; assay type: functional; details: read-out: Activity
[15] = test system: DU-145; experiment: Growth inhibition of human DU-145 cells assessed as growth percentage at 0.1 uM incubated for 48 hrs by sulforhodamine B assay relative to control; assay type: functional; details: read-out: Activity
[16] = test system: NCI-H23; experiment: Growth inhibition of human NCI-H23 cells assessed as growth percentage at 0.1 uM incubated for 48 hrs by sulforhodamine B assay relative to control; assay type: functional; details: read-out: Activity
[17] = test system: MDA-MB-468; experiment: Growth inhibition of human MDA-MB-468 cells assessed as growth percentage at 10 uM incubated for 48 hrs by sulforhodamine B assay relative to control; assay type: functional; details: read-out: Activity
[18] = Cytotoxicity against human HFF-1 cells assessed as cell growth inhibition by MTT assay; assay type: cell-based
[19] = Cmax in Sprague-Dawley rat at 10 mg/kg, po measured up to 24 hrs by LC-MS/MS analysis; assay type: ADME, organism-based; set-up: route oral, dose 10 mg/kg, time <=24; details: in vivo
[20] = test system: SR; experiment: Growth inhibition of human SR cells assessed as growth percentage at 1 uM incubated for 48 hrs by sulforhodamine B assay relative to control; assay type: functional; details: read-out: Activity
[21] = test system: SW-620; experiment: Growth inhibition of human SW-620 cells assessed as growth percentage at 1 uM incubated for 48 hrs by sulforhodamine B assay relative to control; assay type: functional; details: read-out: Activity
[22] = test system: NCI-H522; experiment: Growth inhibition of human NCI-H522 cells assessed as growth percentage at 0.01 uM incubated for 48 hrs by sulforhodamine B assay relative to control; assay type: functional; details: read-out: Activity
[23] = AUC (0 to infinity) in Sprague-Dawley rat at 10 mg/kg, iv measured up to 24 hrs by LC-MS/MS analysis; assay type: ADME, organism-based; set-up: route intravenous, dose 10 mg/kg, time <=24; details: in vivo
[24] = test system: UACC-62; experiment: Growth inhibition of human UACC-62 cells assessed as growth percentage at 0.01 uM incubated for 48 hrs by sulforhodamine B assay relative to control; assay type: functional; details: read-out: Activity
[25] = test system: LOX IMVI; experiment: Growth inhibition of human LOX IMVI cells assessed as growth percentage at 0.1 uM incubated for 48 hrs by sulforhodamine B assay relative to control; assay type: functional; details: read-out: Activity
[26] = test system: SR; experiment: Growth inhibition of human SR cells assessed as growth percentage at 0.1 uM incubated for 48 hrs by sulforhodamine B assay relative to control; assay type: functional; details: read-out: Activity
[27] = test system: 786-0; experiment: Growth inhibition of human 786-0 cells assessed as growth percentage at 0.1 uM incubated for 48 hrs by sulforhodamine B assay relative to control; assay type: functional; details: read-out: Activity
[28] = test system: LOX IMVI; experiment: Growth inhibition of human LOX IMVI cells assessed as growth percentage at 100 uM incubated for 48 hrs by sulforhodamine B assay relative to control; assay type: functional; details: read-out: Activity
[29] = test system: IGROV-1; experiment: Growth inhibition of human IGROV-1 assessed as growth percent at 0.01 uM incubated for 48 hrs by sulforhodamine B assay relative to control; assay type: functional; details: read-out: Activity
[30] = test system: HL-60(TB); experiment: Growth inhibition of human HL-60(TB) cells assessed as growth percentage at 0.1 uM incubated for 48 hrs by sulforhodamine B assay relative to control; assay type: functional; details: read-out: Activity
[31] = test system: SW-620; experiment: Growth inhibition of human SW-620 cells assessed as growth percentage at 10 uM incubated for 48 hrs by sulforhodamine B assay relative to control; assay type: functional; details: read-out: Activity
[32] = test system: HT-29; experiment: Growth inhibition of human HT-29 cells incubated for 48 hrs by sulforhodamine B assay; assay type: functional; details: for GI50: HT-29; for CC50: HT-29, read-out: LC50 (the source's name)
[33] = test system: A498; experiment: Growth inhibition of human A498 cells assessed as growth percentage at 1 uM incubated for 48 hrs by sulforhodamine B assay relative to control; assay type: functional; details: read-out: Activity
[34] = test system: SK-OV-3; experiment: Growth inhibition of human SK-OV-3 cells assessed as growth percentage at 1 uM incubated for 48 hrs by sulforhodamine B assay relative to control; assay type: functional; details: read-out: Activity
[35] = test system: NCI-H522; experiment: Growth inhibition of human NCI-H522 cells assessed as growth percentage at 100 uM incubated for 48 hrs by sulforhodamine B assay relative to control; assay type: functional; details: read-out: Activity
[36] = test system: UO-31; experiment: Growth inhibition of human UO-31 cells assessed as growth percentage at 100 uM incubated for 48 hrs by sulforhodamine B assay relative to control; assay type: functional; details: read-out: Activity
[37] = test system: SK-MEL-2; experiment: Growth inhibition of human SK-MEL-2 cells assessed as growth percentage at 0.1 uM incubated for 48 hrs by sulforhodamine B assay relative to control; assay type: functional; details: read-out: Activity
[38] = test system: SK-MEL-28; experiment: Growth inhibition of human SK-MEL-28 cells assessed as growth percentage at 0.01 uM incubated for 48 hrs by sulforhodamine B assay relative to control; assay type: functional; details: read-out: Activity
[39] = test system: SF-539; experiment: Growth inhibition of human SF-539 cells assessed as growth percentage at 0.1 uM incubated for 48 hrs by sulforhodamine B assay relative to control; assay type: functional; details: read-out: Activity

Insulin-like growth factor 1 receptor (Homo sapiens), sequence (P08069 31-736 limits assumed): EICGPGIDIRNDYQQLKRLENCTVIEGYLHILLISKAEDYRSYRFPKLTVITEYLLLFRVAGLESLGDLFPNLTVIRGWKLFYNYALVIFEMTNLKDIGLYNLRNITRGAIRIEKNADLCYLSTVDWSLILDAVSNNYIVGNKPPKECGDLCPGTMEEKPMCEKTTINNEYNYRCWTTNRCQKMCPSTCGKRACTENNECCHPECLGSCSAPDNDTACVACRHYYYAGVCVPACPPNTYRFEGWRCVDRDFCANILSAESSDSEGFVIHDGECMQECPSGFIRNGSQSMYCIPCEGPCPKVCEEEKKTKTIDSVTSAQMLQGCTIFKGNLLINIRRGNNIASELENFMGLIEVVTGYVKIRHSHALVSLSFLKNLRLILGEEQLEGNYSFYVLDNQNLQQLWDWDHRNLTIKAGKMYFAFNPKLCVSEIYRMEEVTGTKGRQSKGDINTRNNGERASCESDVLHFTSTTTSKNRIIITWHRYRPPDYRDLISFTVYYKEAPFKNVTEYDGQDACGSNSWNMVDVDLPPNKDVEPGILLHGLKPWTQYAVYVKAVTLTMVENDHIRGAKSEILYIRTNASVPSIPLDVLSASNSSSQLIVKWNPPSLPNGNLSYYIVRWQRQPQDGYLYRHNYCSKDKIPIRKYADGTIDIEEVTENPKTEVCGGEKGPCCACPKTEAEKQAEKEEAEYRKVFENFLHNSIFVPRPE
Insulin-like growth factor 1 receptor (Homo sapiens), sequence (P08069 741-1367 limits assumed): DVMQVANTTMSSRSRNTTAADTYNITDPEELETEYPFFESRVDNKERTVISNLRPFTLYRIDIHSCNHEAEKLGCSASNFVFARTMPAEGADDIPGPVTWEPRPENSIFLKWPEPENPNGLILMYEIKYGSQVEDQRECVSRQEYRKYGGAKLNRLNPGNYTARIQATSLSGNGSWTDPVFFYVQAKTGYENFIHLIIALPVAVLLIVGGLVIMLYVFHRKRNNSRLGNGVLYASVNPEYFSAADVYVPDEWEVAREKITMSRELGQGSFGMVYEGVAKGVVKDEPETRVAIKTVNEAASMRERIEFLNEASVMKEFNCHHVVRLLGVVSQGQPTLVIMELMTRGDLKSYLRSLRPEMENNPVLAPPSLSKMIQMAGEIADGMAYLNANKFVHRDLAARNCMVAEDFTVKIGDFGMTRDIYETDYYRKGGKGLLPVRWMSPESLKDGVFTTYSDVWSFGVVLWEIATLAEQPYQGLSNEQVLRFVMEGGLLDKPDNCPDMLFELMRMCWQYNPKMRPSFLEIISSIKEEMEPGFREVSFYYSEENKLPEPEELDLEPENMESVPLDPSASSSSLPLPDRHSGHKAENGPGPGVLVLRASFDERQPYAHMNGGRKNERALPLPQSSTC
Tyrosine-protein kinase Yes (Homo sapiens), sequence (P07947 2-543 limits assumed): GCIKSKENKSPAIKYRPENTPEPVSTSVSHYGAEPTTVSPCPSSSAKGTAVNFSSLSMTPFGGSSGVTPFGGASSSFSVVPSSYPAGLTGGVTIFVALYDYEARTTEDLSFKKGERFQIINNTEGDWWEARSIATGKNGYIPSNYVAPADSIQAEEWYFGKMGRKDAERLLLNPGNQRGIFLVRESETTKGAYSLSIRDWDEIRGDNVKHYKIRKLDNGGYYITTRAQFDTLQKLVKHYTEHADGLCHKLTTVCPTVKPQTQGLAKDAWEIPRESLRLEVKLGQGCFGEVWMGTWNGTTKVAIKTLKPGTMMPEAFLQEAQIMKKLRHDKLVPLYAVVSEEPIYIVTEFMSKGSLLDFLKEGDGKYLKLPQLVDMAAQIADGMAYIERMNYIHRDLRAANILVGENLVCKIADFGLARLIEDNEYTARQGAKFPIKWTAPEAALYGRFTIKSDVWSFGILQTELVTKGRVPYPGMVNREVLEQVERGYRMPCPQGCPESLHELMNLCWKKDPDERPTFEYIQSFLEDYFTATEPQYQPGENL

SMILES | growth at 0.01 µM [2] | growth at 0.1 µM [3] | growth at 100 µM [4] | growth at 1 µM [5] | growth at 100 µM [6] | growth at 100 µM [8] | growth at 0.1 µM [9] | growth at 0.01 µM [10] | growth at 1 µM [11] | growth at 0.01 µM [13] | growth at 1 µM [14] | growth at 0.1 µM [15] | growth at 0.1 µM [16] | growth at 10 µM [17] | GI50 [18] | growth at 1 µM [20] | growth at 1 µM [21] | growth at 0.01 µM [22] | growth at 0.01 µM [24] | growth at 0.1 µM [25] | also measured
CCCCCCCC(=O)Nc1nc2[nH]c(CN3CCN(Cc4cccc(F)c4)CC3)c(CN3CCN(Cc4cccc(F)c4)CC3)c2c(=O)[nH]1 | 97% | 85% | -88% | -15% | -90% | -81% | 95% | 95% | 29% | 97% | 76% | 101% | 100% | -68.7% | > 10 µM | -31% | -72% | 106% | 97% | 94% | inhibition [1]: 70.3%; growth at 100 µM [7]: -45%; inhibition [12]: 45.5%; Cmax [19]: 10 ng/mL; AUC(0-inf) [23]: 498 ng·h/mL; growth at 0.1 µM [26]: 88%; growth at 0.1 µM [27]: 92%; growth at 100 µM [28]: -75%; growth at 0.01 µM [29]: 98%; growth at 0.1 µM [30]: 99%; growth at 10 µM [31]: -78.5%; GI50 [32]: 0.26 µM; CC50 [32]: 3.76 µM; growth at 1 µM [33]: 66%; growth at 1 µM [34]: 107%; growth at 100 µM [35]: -79%; growth at 100 µM [36]: -81%
Nc1nc2[nH]c(CN3CCN(c4cc(Cl)cc(Cl)c4)CC3)c(CN3CCN(c4cc(Cl)cc(Cl)c4)CC3)c2c(=O)[nH]1 | 99% | 92% | -45% | 90% | -49% | -44% | 89% | 100% | 85% | 100% | 95% | 109% | 107% | 40.1% | > 10 µM | 67% | 88% | 95% | 101% | 99% | growth at 0.1 µM [37]: 115%; growth at 0.01 µM [38]: 94%; growth at 0.1 µM [39]: 94%; growth at 0.1 µM [26]: 105%; growth at 0.1 µM [27]: 93%; growth at 100 µM [28]: -35%; growth at 0.01 µM [29]: 104%; growth at 10 µM [31]: -16.3%; GI50 [32]: 1.74 µM; TGI ([32]; HT-29, 48 h): 3.41 µM; CC50 [32]: 6.7 µM; growth at 1 µM [33]: 75%; growth at 1 µM [34]: 102%; growth at 100 µM [35]: -60%; growth at 100 µM [36]: -57%
